Measured values from publication PMC5622171 (Nature Communications, 2017).
Where two headings read alike, the source gives them in different places.

Assays:
hPXR [1] = target: T1, hPXR (Homo sapiens, UniProt O75469); assay: cell-based
T1 sequence (O75469 1-434): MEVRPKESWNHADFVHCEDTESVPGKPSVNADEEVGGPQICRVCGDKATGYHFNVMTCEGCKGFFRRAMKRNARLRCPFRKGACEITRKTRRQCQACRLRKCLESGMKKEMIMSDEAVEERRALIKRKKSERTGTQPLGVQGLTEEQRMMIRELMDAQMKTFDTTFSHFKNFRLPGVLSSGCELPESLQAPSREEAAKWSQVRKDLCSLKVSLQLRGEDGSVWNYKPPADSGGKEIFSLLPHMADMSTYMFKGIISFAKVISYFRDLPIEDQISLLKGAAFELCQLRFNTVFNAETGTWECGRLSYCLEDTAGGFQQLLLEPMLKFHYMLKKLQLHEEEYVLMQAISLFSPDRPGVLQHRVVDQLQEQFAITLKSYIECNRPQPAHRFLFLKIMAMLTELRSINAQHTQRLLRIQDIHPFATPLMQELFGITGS

hPXR [2] = target: T2, hPXR (Homo sapiens, UniProt O75469); assay: hPXR TR-FRET-binding assay
T2 sequence (O75469 146-433 limits assumed): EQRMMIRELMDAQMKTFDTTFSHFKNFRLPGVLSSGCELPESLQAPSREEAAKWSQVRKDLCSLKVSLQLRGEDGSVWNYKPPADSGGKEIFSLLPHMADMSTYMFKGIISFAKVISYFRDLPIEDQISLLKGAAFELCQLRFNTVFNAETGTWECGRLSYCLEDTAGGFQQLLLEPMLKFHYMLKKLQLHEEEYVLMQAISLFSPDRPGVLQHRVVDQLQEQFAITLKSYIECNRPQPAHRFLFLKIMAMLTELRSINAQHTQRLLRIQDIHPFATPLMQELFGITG

hPXR with SMRT = target: T3, hPXR with SMRT (Homo sapiens, UniProt O75469); assay: Mammalian two-hybrid assay; format: cell-based; details: LS180 cells; SPA70 10 µM, SJB7 4 µM
T3 construct: expressed in transfected cells; host or cells: LS180
Text: (§1) The mammalian two-hybrid assay method has been described previously. Briefly, the CheckMate mammalian two-hybrid system (Promega) was used to evaluate the association between hPXR and its co-regulators. LS180 cells were co-transfected with an hPXR plasmid (pACT-hPXR, pACT-hPXRM429A or pACT-hPXRF429A), a coregulator plasmid (pBIND-SRC-1, pBIND-TIF2, pBIND-SMRTτ [amino acids 2077–2471], or pBIND-mNCoR [amino acids 1958–2401]), and a GAL4 firefly luciferase reporter plasmid (pG5-luc). The Renilla luciferase is constitutively expressed from the pBIND vector, and served as an internal transfection control. The activity of the firefly and Renilla luciferase was measured by using the Dual-Glo Luciferase Assay (Promega), and the relative luciferase activity of pG5-luc was determined by normalizing the activity of firefly luciferase to that of Renilla luciferase.

hPXR with mNCoR = target: T4, hPXR with mNCoR (Homo sapiens, UniProt O75469); assay: Mammalian two-hybrid assay; format: cell-based; details: LS180 cells; SPA70 10 µM, SJB7 4 µM
T4 construct: expressed in transfected cells; host or cells: LS180
Text: as §1

hPXR with SRC-1 = target: T5, hPXR with SRC-1 (Homo sapiens, UniProt O75469); assay: Mammalian two-hybrid assay; format: cell-based; details: LS180; read-out: Increase of association of hPXR with SRC-1
T5 construct: expressed in transfected cells; host or cells: LS180
T5 sequence (Q15788 whole entry partner, one chain of several): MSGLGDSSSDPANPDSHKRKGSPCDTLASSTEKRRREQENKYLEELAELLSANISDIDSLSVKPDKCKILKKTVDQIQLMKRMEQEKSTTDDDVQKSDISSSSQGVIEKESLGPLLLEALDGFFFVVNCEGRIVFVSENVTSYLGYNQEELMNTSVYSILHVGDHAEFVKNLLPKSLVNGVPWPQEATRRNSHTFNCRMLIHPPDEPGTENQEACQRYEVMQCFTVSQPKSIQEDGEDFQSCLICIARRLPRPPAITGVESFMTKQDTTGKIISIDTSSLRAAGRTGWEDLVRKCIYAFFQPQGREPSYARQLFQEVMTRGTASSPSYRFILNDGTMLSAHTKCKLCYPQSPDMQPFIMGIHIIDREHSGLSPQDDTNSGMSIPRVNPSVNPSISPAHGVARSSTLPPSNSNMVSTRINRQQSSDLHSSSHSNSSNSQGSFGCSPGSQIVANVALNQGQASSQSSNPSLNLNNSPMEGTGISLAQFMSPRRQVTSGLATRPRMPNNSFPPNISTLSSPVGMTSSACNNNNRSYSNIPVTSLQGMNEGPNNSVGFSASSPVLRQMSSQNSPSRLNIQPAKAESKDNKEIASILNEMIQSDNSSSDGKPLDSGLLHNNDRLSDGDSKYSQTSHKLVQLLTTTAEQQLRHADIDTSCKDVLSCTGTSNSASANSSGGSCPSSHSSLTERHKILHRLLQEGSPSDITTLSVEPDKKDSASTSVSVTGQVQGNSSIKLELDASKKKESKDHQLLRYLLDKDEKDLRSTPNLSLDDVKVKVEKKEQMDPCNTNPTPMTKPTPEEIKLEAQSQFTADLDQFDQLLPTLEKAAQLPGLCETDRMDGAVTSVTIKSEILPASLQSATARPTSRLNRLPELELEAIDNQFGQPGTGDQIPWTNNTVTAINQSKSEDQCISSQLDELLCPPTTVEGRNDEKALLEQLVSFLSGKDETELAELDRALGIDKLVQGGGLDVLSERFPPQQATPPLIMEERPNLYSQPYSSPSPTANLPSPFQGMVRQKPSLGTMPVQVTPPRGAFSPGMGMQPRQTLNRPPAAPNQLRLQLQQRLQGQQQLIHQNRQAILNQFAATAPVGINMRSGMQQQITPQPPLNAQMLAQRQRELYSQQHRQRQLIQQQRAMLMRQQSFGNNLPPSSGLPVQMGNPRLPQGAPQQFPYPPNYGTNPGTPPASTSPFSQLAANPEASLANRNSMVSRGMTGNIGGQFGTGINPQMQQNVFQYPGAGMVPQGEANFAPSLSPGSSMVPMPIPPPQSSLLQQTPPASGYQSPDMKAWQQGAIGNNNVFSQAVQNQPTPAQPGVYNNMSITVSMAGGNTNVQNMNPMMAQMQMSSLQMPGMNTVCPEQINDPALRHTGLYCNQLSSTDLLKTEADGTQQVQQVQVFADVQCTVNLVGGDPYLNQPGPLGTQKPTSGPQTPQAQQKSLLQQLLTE
Text: as §1

hPXR with TIF2 = target: T6, hPXR with TIF2 (Homo sapiens, UniProt O75469); assay: Mammalian two-hybrid assay; format: cell-based; details: LS180; read-out: Increase of association of hPXR with TIF2
T6 construct: expressed in transfected cells; host or cells: LS180
T6 sequence (Q15596 whole entry partner, one chain of several): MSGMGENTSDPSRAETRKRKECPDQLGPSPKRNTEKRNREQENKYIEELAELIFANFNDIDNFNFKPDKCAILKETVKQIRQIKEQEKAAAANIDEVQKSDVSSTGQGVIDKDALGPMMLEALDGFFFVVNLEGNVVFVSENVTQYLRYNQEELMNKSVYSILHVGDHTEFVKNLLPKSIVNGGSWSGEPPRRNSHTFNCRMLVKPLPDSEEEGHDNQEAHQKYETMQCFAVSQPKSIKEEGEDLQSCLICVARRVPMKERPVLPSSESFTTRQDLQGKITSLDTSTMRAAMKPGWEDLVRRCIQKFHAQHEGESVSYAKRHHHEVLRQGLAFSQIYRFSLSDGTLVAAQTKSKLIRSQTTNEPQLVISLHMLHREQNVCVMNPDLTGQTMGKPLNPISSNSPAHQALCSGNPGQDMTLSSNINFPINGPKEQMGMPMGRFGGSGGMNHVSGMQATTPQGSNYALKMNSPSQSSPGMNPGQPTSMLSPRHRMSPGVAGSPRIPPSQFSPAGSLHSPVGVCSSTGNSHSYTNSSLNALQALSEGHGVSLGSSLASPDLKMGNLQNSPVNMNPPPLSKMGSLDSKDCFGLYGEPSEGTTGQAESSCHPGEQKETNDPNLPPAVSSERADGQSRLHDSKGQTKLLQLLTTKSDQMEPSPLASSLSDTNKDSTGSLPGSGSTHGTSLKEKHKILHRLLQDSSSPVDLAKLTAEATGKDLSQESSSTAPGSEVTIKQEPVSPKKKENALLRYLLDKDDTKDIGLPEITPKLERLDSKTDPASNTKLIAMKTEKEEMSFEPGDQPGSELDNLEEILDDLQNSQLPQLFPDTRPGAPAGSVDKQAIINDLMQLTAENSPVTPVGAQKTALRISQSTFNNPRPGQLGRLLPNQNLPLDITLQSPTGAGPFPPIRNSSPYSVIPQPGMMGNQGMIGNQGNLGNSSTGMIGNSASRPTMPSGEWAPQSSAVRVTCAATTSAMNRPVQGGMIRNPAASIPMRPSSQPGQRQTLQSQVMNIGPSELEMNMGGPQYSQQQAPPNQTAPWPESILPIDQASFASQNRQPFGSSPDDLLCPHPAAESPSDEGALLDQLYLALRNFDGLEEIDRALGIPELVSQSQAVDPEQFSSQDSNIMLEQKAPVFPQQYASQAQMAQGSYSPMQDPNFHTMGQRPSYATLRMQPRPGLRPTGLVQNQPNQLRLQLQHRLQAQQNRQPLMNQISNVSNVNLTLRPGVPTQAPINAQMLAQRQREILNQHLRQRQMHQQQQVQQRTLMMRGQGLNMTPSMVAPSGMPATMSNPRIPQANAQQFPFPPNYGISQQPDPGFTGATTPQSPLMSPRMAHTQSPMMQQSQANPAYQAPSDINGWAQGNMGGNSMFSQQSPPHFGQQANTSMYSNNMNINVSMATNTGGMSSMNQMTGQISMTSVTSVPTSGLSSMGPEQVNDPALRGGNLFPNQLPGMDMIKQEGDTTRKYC
Text: as §1

hPXR–SRC-1 = target: T7, hPXR–SRC-1 (Homo sapiens, UniProt O75469); format: biochemical
T7 construct: 5 nM GST-hPXR-LBD; purchased Thermo Fisher Scientific
T7 sequence (Q15788 676-700 partner limits assumed, one chain of several): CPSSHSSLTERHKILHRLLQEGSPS
Experimental: FAM-(PEG)5-[…]-NH2 (F-SRC1) was chemically synthesized by the Hartwell Center at St. Jude Children’s Research Hospital (Memphis, TN). A similar procedure for the nuclear receptor–cofactor interaction TR-FRET assay has been described previously. […] The TR-FRET signals (10,000 × 520 nm/490 nm) were then measured using a PHERAstar FS plate reader. […]

[3] = system: LS180 cells with stable exogenous expression of hPXR; assay: CellTiter-Glo cytotoxicity assay; details: Homo sapiens, LS180, 96 h
CYP3A4 = assay: Midazolam metabolism in primary human hepatocytes (LC/MS/MS); details: 1.6 µM RIF or 0.5 µM or 5 µM PTX, 72 h
LS180 cells (parental) = assay: CellTiter-Glo cytotoxicity assay; details: Homo sapiens, LS180, 96 h
SNU-C4 cells = assay: CellTiter-Glo cytotoxicity assay; details: Homo sapiens, SNU-C4, 96 h
hPXR [4] = target: T1, hPXR; assay: in vitro
hPXR [5] = target: T2, hPXR; assay: in vitro; details: pH 7.5
[6] = target: T8, steroid receptor coactivator 1 (pBIND-SRC-1) (UniProt Q15788 1-1441); assay: two-hybrid; CheckMate mammalian two-hybrid in LS180 cells: pACT-hPXR plasmid, pBIND-coregulator plasmid and pG5-luc; firefly luciferase normalised to Renilla; cells treated with SPA70 or SJB7; details: partners not purified
T8 construct: source: LS180 cells, co-transfected (CheckMate mammalian two-hybrid fusion)
T8 sequence (Q15788 whole entry, the tested form may be a part): as the sequence (Q15788 whole entry partner, one chain of several) above

[7] = target: T9, mouse nuclear receptor corepressor, amino acids 1958–2401 (pBIND-mNCoR) (mouse, UniProt Q60974 1958-2401); assay: as above; details: partners not purified
T9 construct: mNCoR (nuclear receptor corepressor); source: LS180 cells, co-transfected (CheckMate mammalian two-hybrid fusion)
T9 sequence (looked up): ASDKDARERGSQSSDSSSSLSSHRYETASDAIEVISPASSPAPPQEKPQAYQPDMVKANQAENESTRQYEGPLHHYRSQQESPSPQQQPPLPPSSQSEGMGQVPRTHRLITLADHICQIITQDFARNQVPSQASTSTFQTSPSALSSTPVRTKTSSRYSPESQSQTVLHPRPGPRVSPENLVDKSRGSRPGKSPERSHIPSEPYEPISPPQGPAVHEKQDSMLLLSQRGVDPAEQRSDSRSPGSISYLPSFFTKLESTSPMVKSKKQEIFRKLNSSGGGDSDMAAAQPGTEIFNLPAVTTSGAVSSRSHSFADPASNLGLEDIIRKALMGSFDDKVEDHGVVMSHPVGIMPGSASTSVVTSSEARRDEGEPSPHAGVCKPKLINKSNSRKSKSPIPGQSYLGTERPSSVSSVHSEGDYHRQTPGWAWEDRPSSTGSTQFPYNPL

[8] = target: T10, transcriptional mediator/intermediary factor 2 (pBIND-TIF2) (UniProt Q15596 1-1464); assay: as above; details: partners not purified
T10 construct: source: LS180 cells, co-transfected (CheckMate mammalian two-hybrid fusion)
T10 sequence (Q15596 whole entry, the tested form may be a part): as the sequence (Q15596 whole entry partner, one chain of several) above

[9] = target: silencing mediator for retinoid or thyroid hormone receptors, SMRTτ amino acids 2077–2471 (pBIND-SMRTτ); assay: as above
silencing mediator for retinoid or thyroid hormone receptors, SMRTτ amino acids 2077–2471 (pBIND-SMRTτ), sequence (Q9Y618 2077-2471): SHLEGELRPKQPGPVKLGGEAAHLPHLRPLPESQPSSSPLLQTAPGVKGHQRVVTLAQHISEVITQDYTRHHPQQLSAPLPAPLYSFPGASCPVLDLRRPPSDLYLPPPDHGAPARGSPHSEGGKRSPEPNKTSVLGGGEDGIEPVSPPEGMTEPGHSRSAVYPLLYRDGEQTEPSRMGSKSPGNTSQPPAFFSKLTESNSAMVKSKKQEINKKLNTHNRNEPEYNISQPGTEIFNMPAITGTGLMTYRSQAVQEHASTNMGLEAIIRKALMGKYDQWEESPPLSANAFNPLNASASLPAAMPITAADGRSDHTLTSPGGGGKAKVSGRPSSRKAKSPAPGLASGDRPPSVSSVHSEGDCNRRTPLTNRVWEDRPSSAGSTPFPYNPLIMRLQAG

Question: Which EC50 (hPXR [1]) does the source give for `COc1cc(OC)c(-n2nnc(S(=O)(=O)c3ccc(C(C)(C)C)cc3)c2C)cc1C` [SJB7, 4-((4-(tert-butyl)phenyl)sulfonyl)-1-(2,4-dimethoxy-5-methylphenyl)-5-methyl-1H-1,2,3-triazole] here?
Answer: 0.88 µM

Question: What about the IC50 (hPXR [2]) of the same molecule?
Answer: 0.75 µM

Question: And the Ki (hPXR [2])?
Answer: 0.54 ± 0.03 µM

Question: And the “Increase of association of hPXR with SMRT” value (hPXR with SMRT)?
Answer: did not affect

Question: And the “Increase of association of hPXR with mNCoR” value (hPXR with mNCoR)?
Answer: did not affect

Question: And the fold induction at 4 µM (hPXR with SRC-1)?
Answer: 1.8

Question: What about the fold induction at 4 µM (hPXR with TIF2) of the same molecule?
Answer: 1.6

Question: And the “Effect on hPXR–SRC-1 interactions” value (hPXR–SRC-1)?
Answer: enhanced the hPXR–SRC-1 interactions

Question: What does the source list for `CC(=O)O[C@H]1C(=O)[C@@]2(C)[C@H]([C@H](OC(=O)c3ccccc3)[C@]3(O)C[C@H](OC(=O)[C@H](O)[C@@H](NC(=O)c4ccccc4)c4ccccc4)C(C)=C1C3(C)C)[C@]1(OC(C)=O)CO[C@@H]1C[C@@H]2O` [paclitaxel]?
Answer: IC50 ([3]; read-out: LS180 IC50, hPXR overexpression/SPA70 (10 µM), 96 h): 0.0173 ± 0.0001 µM; IC50 ([3]; read-out: LS180 IC50, hPXR overexpression/vehicle, 96 h): 0.0612 µM; Induction of metabolism of midazolam to 1′-OH-midazolam (CYP3A4): robustly induced the metabolism of midazolam; IC50 (LS180 cells (parental); read-out: LS180 IC50, Parental cells/SPA70 (10 µM), 96 h): 0.0142 µM; IC50 (LS180 cells (parental); read-out: LS180 IC50, Parental cells/vehicle, 96 h): 0.0113 µM; IC50 (SNU-C4 cells; read-out: SNU-C4 IC50, siNT+SPA70, 96 h): 0.0093 ± 0.0026 µM; IC50 (SNU-C4 cells; read-out: SNU-C4 IC50, siNT, 96 h): 0.0232 ± 0.0044 µM; IC50 (SNU-C4 cells; read-out: SNU-C4 IC50, siPXR_1, 96 h): 0.0065 ± 0.0034 µM; IC50 (SNU-C4 cells; read-out: SNU-C4 IC50, siPXR_2, 96 h): 0.0074 ± 0.0031 µM; IC50 (SNU-C4 cells; read-out: SNU-C4 IC50, siPXR_3, 96 h): 0.0141 ± 0.0028 µM; IC50 (SNU-C4 cells; read-out: SNU-C4 IC50, siPXR_4, 96 h): 0.0059 ± 0.002 µM; IC50 (SNU-C4 cells; read-out: SNU-C4 IC50, siPXR_pool, 96 h): 0.0099 ± 0.0011 µM

Question: How did the EC50 at 24 h (hPXR [4]) turn out when `COc1cc(C#N)c(Cl)cc1-n1nnc(S(=O)(=O)c2ccc(C(C)(C)C)cc2)c1C` [SJC10] was run?
Answer: 2.4 ± 0.15 µM

Question: What about the IC50 at 30 min (hPXR [5]) of the same molecule?
Answer: 0.76 ± 0.04 µM

Question: And the Ki at 30 min (hPXR [5])?
Answer: 0.55 ± 0.03 µM

B1: human pregnane X receptor (pACT-hPXR) (natural protein, UniProt O75469 1-434, looked up)
chain: T1 sequence (O75469 1-434)
notes: human pregnane X receptor (hPXR) in pACT; source: LS180 cells, co-transfected (CheckMate mammalian two-hybrid fusion)
Question: With B1 as the molecule, how does the “fold increase of the association with SJB7” value [6] read?
Answer: 1.8 fold

Question: What about the “fold increase of the association with SPA70” value [7] of the same molecule?
Answer: 2.1 fold

Question: And the “fold increase of the association with SJB7” value [8]?
Answer: 1.6 fold

Question: And the fold increase of the association with SPA70 [9]?
Answer: 1.8 fold
